From patent US20140017157A1, “ANTITUMOR AGENT COMPRISING CARBON DIOXIDE AS AN ACTIVE INGREDIENT” (NEOCHEMIR INC., priority 2011, published 2014)

Experiments:
MFH cell line NaraH [1] = assay: Antitumor effects (1) against the implanted tumors in nude mice (Example 1); format: in vivo
Experimental: An MFH cell line NaraH, which is the cell line of a malignant soft tissue tumor, was subcutaneously implanted in the back of the 10 nude mice of 5 weeks old at 12 million cells/mouse. After the implantation, body weight and tumor volume of each nude mouse were measured. The mice were divided into two groups so that the variation in tumor volumes and body weights are reduced. That is, one is carbon dioxide absorption group and the other is control group treated in the same way as carbon dioxide absorption group but without the carbon dioxide absorption treatment. A treatment was started on the 2nd day after the implantation. After anesthetizing all groups by ether inhalation, the treatment was done according to the patent document 7, that is, an absorption aid for carbon dioxide comprising 93.77% by mass of water, 5% by mass of glycerin, 0.65% by mass of carbomer, 0.15% by mass of sodium alginate, 0.15% by mass of sodium dihydrogen phosphate, 0.18% by mass of sodium hydroxide and 0.10% by mass of methylparaben was applied 2 mm thick to the dorsal skin wherein a tumor has been implanted. […] Tumor volume was calculated by the following equation: (Maximum diameter of implanted tumor mass)×(Minimum diameter of implanted tumor mass)×(Minimum diameter of implanted tumor mass)×[…]. […]

MFH cell line NaraH [2] = assay: Antitumor effects (2) against the implanted tumors in nude mice (Example 2); format: in vivo
Experimental: An MFH cell line NaraH, which is the cell line of a malignant soft tissue tumor, was subcutaneously implanted in the back of the 12 nude mice of 5 weeks old at 12 million cells/mouse. After the implantation, body weight and tumor volume of each nude mouse were measured. The mice were divided into 2 groups so that the variation in tumor volumes and body weights are reduced. That is, one is carbon dioxide absorption group and the other is control group treated in the same way as carbon dioxide absorption group but without the carbon dioxide absorption treatment. The treatment according to Example 1 was started on the 3rd day after the implantation. The carbon dioxide absorption was done twice-weekly and the treatment was done for 14 days. The carbon dioxide absorption was done a total of 3 times. Tumor volume was calculated by the following equation: (Maximum diameter of implanted tumor mass)×(Minimum diameter of implanted tumor mass)×(Minimum diameter of implanted tumor mass)×½. The measurement of tumor volume was done on the 3rd, 7th, 10th and 14th day after the tumor implantation.

cell line NaraH [3] = assay: Antitumor effects (3) against the implanted tumors in nude mice, two regimens (Example 3); format: in vivo; conditions: t-test
Experimental: An MPH cell line NaraH, which is the cell line of a malignant soft tissue tumor, was subcutaneously implanted in the back of the 20 nude mice of 5 weeks old at 12 million cells/mouse. After the implantation, body weight and tumor volume were measured. The mice were divided into the following 3 groups so that the variation in tumor volumes and body weights are reduced. The treatment according to Example 1 was started on the 3rd day after the implantation (Table 1).
The treatment was done for 16 days. Tumor volume was calculated by the following equation: (Maximum diameter of implanted tumor mass)×(Minimum diameter of implanted tumor mass)×(Minimum diameter of implanted tumor mass)×½. The measurement of tumor volume was done on the 3rd, 7th, 10th, 14th and 16th day after tumor implantation.

cell line NaraH [4] = assay: Combined effects with a chemotherapeutic agent against the implanted tumors in nude mice (Example 4); format: in vivo; conditions: t-test; for tumor volume compared to the control group: adriamycin 6 mg/kg, CO2 twice-weekly; for Significance level for control group (tumor volume): P
Experimental: A cell line NaraH, which is the cell line of a malignant soft tissue tumor, was subcutaneously implanted in the back of the 17 nude mice of 5 weeks old at 12 million cells/mouse. After the implantation, body weight and tumor volume of each nude mouse were measured. The mice were divided into the following 3 groups so that the variation in tumor volumes and body weights are reduced. The treatment according to Example 1 was started on the 3rd day after the implantation (Table 2).
The treatment was done for 9 days. Tumor volume was calculated by the following equation: (Maximum diameter of implanted tumor mass)×(Minimum diameter of implanted tumor mass)×(Minimum diameter of implanted tumor mass)×½. The measurement of tumor volume was done on the 3rd, 7th and 9th day after tumor implantation.

MDA-MB-231 = assay: Combined effects with a chemotherapeutic agent against the implanted malignant breast carcinoma in nude mice (Example 5); format: in vivo; conditions: t-test; for tumor volume compared to the control group: 15th day after tumor implantation (so in the source), adriamycin 4 mg/kg; for Significance level for control group (tumor volume): P, 15th day, Table 6
Experimental: (§1) MDA-MB-231, a cell line of a malignant breast carcinoma, was subcutaneously implanted in the back of the 18 nude mice of 5 weeks old at 12 million cells/mouse. On the 53rd day after the implantation, body weight and tumor volume of each nude mouse were measured. The mice were divided into the following 4 groups so that the variation in tumor volumes and body weights are reduced. The treatment was done according to Example 1 (Table 5).
The starting date of the test was defined as the 0 day and each treatment was done on the 1st, 5th, 8th, 12th and 15th day. Tumor volume was calculated by the following equation: (Maximum diameter of implanted tumor mass)×(Minimum diameter of implanted tumor mass)×(Minimum diameter of implanted tumor mass)×½. The measurement of tumor volume was done on the 8th and 15th day after tumor implantation. The measurement of body weights of the nude mice as an indication of a side effect was done on the 8th and 15th day after tumor implantation.

[5] = Body weight of tumor-bearing nude mice as an indication of a side effect (Example 5); format: in vivo; conditions: FIG. 12; for weight reduction as an indicator of a side effect compared to the control group: adriamycin 4 mg/kg
Experimental: as §1, with “5). […] The starting date of the test was defined as the 0 day and each treatment was done on the 1st, 5th, 8th, 12th and 15th day. Tumor volume was calculated by the following equation: (Maximum diameter of implanted tumor mass)×(Minimum diameter of implanted tumor mass)×(Minimum diameter of implanted tumor mass)×½. The measurement of tumor volume was done on the 8th and 15th day after tumor implantation. The measurement of body weights of the nude mice as an indication of a side effect was done on the 8th and 15th day after tumor implantation.” for “5).”

[6] = tested on: breast carcinoma cell line MDA-MB-231; assay: Antitumor effects (4) of a single dose against the implanted tumors in nude mice (Example 7); format: in vivo; conditions: 3rd day after starting of the treatment; single treatment (CO2 10 minutes; adriamycin 3 mg/kg); FIG. 14
Experimental: (§2) A breast carcinoma cell line MDA-MB-231, which is […], was subcutaneously implanted in the back of the 23 nude mice of 5 weeks old at 20 million cells/mouse. On the 18th day after the implantation, body weight and tumor volume of each nude mouse were measured. The mice were divided into the following 4 groups so that the variation in tumor volumes and body weights are reduced. The treatment was done according to Example 1 (Table 8), but only once.
Tumor volume was calculated by the following equation: (Maximum diameter of implanted tumor mass)×(Minimum diameter of implanted tumor mass)×(Minimum diameter of implanted tumor mass)×½. The measurement of tumor volume was done on the 3rd day after starting of the treatment.

[7] = Body weight as an indicator of the side effect after a single dose (Example 7); format: in vivo, nude mice; conditions: single treatment (CO2 10 minutes; adriamycin 3 mg/kg); FIG. 15
Experimental: as §2

cell line LM-8 = assay: Effects against the implanted highly lung-metastatic tumors in nude mice (Example 8); format: in vivo
Experimental: A cell line LM-8, which is the cell line of a highly lung-metastatic tumor, was subcutaneously implanted in the back of the 11 nude mice of 5 weeks old at 1 million cells/mouse. On the 3rd day after the implantation, body weight and tumor volume of each nude mouse were measured. The mice were divided into two groups so that the variation in tumor volumes and body weights are reduced. That is, one is carbon dioxide absorption group (6 mice) and the other is control group (5 mice) treated in the same way as the carbon dioxide absorption group but without the carbon dioxide absorption treatment. The treatment according to Example 1 was started on the 3rd day after the implantation. The carbon dioxide absorption was done three times-weekly and the treatment was done for 14 days. The carbon dioxide absorption was done a total of 6 times. Tumor volume was calculated by the following equation: (Maximum diameter of implanted tumor mass)×(Minimum diameter of implanted tumor mass)×(Minimum diameter of implanted tumor mass)×½. The measurement of tumor volume was done on the 3rd, 7th, 10th, 14th, 17th and 21st day after the tumor implantation. On the 21st day after the tumor implantation, a lung of each mouse was isolated and the lung weight was measured. The cross-sections of the lung, where the metastasized tumor have been stained by hematoxylin and eosin, were chosen at random and a proportion of the stained area in the cross-section was analyzed by using an image analyzing software ImageJ to obtain the lung metastasis rate of the tumor.

[8] = 14 days treatment, twice-weekly CO2 absorption
[9] = 7th day after tumor implantation
[10] = 9th day after tumor implantation
[11] = 7th day after tumor implantation, Table 3
[12] = 9th day after tumor implantation, Table 4

## O=C=O [carbon dioxide]
MFH cell line NaraH [1]; 16th day after tumor implantation, transdermal CO2 absorption 10 minutes, twice-weekly, total of 4 times, t-test, FIG. 1
  tumor volume compared to the control group: statistically significantly reduced
MFH cell line NaraH [1]; [8]
  deaths during the experiment period: no deaths
MFH cell line NaraH [2]; 14th day after tumor implantation, twice-weekly, total of 3 times, t-test, FIG. 2
  tumor volume compared to the control group: statistically significantly reduced
MFH cell line NaraH [2]; [8]
  deaths during experimental period: no deaths
Cell line NaraH [3]; group of 5 times-weekly administration early in treatment (5 consecutive days from first day), FIG. 4
  tumor volume compared to the control group: statistically significantly reduced
Cell line NaraH [3]; group of twice-weekly administration, treatment 16 days, FIG. 3
  tumor volume compared to the control group: statistically significantly reduced
Cell line NaraH [4]; [9]
  tumor volume compared to the control group: statistically significantly reduced
Cell line NaraH [4]; [10]
  tumor volume compared to the control group: statistically significantly reduced
Cell line NaraH [4]; [11]
  Significance level for control group (tumor volume): P < 0.001
Cell line NaraH [4]; [12]
  Significance level for control group (tumor volume): P < 0.05
MDA-MB-231
  tumor volume compared to the control group: statistically significantly reduced
  Significance level for control group (tumor volume): P < 0.001
[5]
  weight reduction as an indicator of a side effect compared to the control group: significant weight reduction was not found
[6]
  tumor volume relative to initial volume: reduced to two-thirds of initial volumes
[7]
  body weight reduction as an indicator of the side effect: not observed
Cell line LM-8; 21st day after tumor implantation, CO2 three times-weekly, total of 6 times, t-test, FIG. 16
  lung weights compared to the control group: statistically significantly reduced
Cell line LM-8; 21st day after tumor implantation, proportion of stained area in lung cross-section, t-test, FIG. 17
  lung metastasis rates compared to the control group: statistically significantly reduced
Cell line LM-8; 21st day, t-test, FIG. 16
  significance level (P) of lung weight reduction compared to the control group: < 0.05
Cell line LM-8; 21st day, t-test, FIG. 17
  significance level (P) of lung metastasis rate reduction compared to the control group: < 0.05
Cell line LM-8; CO2 three times-weekly for 14 days
  deaths during the experiment period: no deaths
Cell line LM-8; CO2 three times-weekly, total of 6 times, t-test, FIG. 18
  subcutaneously-implanted tumor volumes compared to the control group: statistically significantly reduced
Cell line LM-8; t-test, FIG. 18
  significance level (P) of subcutaneously-implanted tumor volume reduction compared to the control group: < 0.05

## COc1cccc2c1C(=O)c1c(O)c3c(c(O)c1C2=O)C[C@@](O)(C(=O)CO)C[C@@H]3O[C@H]1C[C@H](N)[C@H](O)[C@H](C)O1 [chemotherapeutic agent, adriamycin, reference compound]
Cell line NaraH [4]; [9]
  tumor volume compared to the control group: statistically significantly reduced
Cell line NaraH [4]; [10]
  tumor volume compared to the control group: statistically significantly reduced
Cell line NaraH [4]; [11]
  Significance level for control group (tumor volume): P < 0.005
Cell line NaraH [4]; [12]
  Significance level for control group (tumor volume): P < 0.05
MDA-MB-231
  tumor volume compared to the control group: statistically significantly reduced
  Significance level for control group (tumor volume): P < 0.005
[5]
  significance level (P) of weight reduction compared to the carbon dioxide-alone group: < 0.05
  weight reduction compared to the carbon dioxide-alone group: Significant weight reduction was found
  weight reduction as an indicator of a side effect compared to the control group: statistically significant
[6]
  tumor volume relative to initial volume: not changed
[7]
  body weight reduction as an indicator of the side effect: reduced
